For this experiment, the system named is TGFβ signal. In words: TGFβ signal inhibitory activity, (SBE)4-Luc reporter in A549 cells (Test Examples 1A and 1B). In kind it is cell-based, human. The conditions noted are these: Homo sapiens. Summed up: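 Stable A549 line carrying (SBE)4-Luc Smad3-binding reporter treated with compound plus TGFβ-1 (2 ng/ml) for 4 hr; luciferase read by chemiluminescence. Percent inhibition relative to TGFβ-only and untreated cells, tested at 3 µM and 10 µM, some also at 1 µM.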

Where [1] appears, read: A549, 3 µM, compounds of Reference Examples (Test Example 1B), read-out: TGFβ inhibition rate, %.
[2] abbreviates: A549, 10 µM, compounds of Reference Examples (Test Example 1B), read-out: TGFβ inhibition rate, %.
Where [3] appears, read: A549, test compound 3 µM, Reference Examples, Table 1B, read-out: TGFβ inhibition rate, %.
[4] abbreviates: A549, test compound 10 µM, Reference Examples, Table 1B, read-out: TGFβ inhibition rate, %.
Setting [5] is: A549, read-out: TGFβ inhibition rate, %.
Setting [6] is: A549, test compound 3 µM, TGFβ-1 2 ng/ml, 4 hr, Table 1A, read-out: TGFβ inhibition rate, %.
Where [7] appears, read: A549, test compound 10 µM, TGFβ-1 2 ng/ml, 4 hr, Table 1A, read-out: TGFβ inhibition rate, %.

Like-named read-outs stand apart in the source and are kept apart here.

In general, inhibition refers to the relative decrease from the control value, in per cent. Regarding `COc1cc2nccc(Oc3ccc(C)nc3-c3ccc(C(C)C)cc3)c2cc1OC` [Compound r243], the inhibition at 3 µM under setting [1] is -7%. Moreover, under setting [2], the inhibition at 10 µM is 62%. Turning to `COc1cc2nccc(Oc3ccc(C)nc3C(C)=O)c2cc1OC` [Compound r117, 1-{[3-(6,7-Dimethoxy-4-quinolyl)oxy]-6-methyl-2-pyridyl}-1-ethanone], under setting [3], the inhibition at 3 µM turned out to be 84%. For the same compound, the inhibition at 10 µM under setting [4] is 98%. With `COc1cc2nccc(Oc3ccc(C)cc3[N+](=O)[O-])c2cc1OC` [r13], the inhibition at 3 µM under setting [3] was found to be 28%. Under setting [4], the inhibition at 10 µM is 78%. The corresponding values for `COc1cc2c(Oc3ccc(C)cc3C(=O)c3ccccc3)ccnc2cc1OCCCl` [r123] are 98% and 100%. Regarding `COc1cc2c(Oc3cc4ccccc4nc3C)ccnc2cc1OCCN1CCOCC1` [Compound r366], the inhibition at 10 µM under setting [5] is 100%. Take `Cc1cc(Oc2ccnc3cc(Cl)ccc23)c(-c2ccccn2)nc1C` [Compound 13, 3-(7-Chloro-quinolin-4-yloxy)-5,6-dimethyl-[2,2']bipyridine]: under setting [6], the inhibition at 3 µM worked out at 99%. For the same compound, the inhibition at 10 µM under setting [7] was 100%. The like results for `COc1cc2nccc(Oc3ccc(F)nc3-c3ccccn3)c2cc1OC` [Compound 115, 3-(6,7-Dimethoxy-quinolin-4-yloxy)-6-fluoro-[2,2']bipyridine] were, in that order, 100% and 100%. Consider `COc1cc2nccc(Oc3cc4ccccc4cc3O)c2cc1OC` [r425], for which the inhibition at 3 µM under setting [1] was determined as 72%. Besides, the inhibition at 10 µM under setting [2] stood at 100%. For `COc1cc2nccc(Oc3ccc(C)nc3)c2cc1OC` [Compound r115, 4-[(6-Methyl-3-pyridyl)oxy]-6,7-dimethoxyquinoline], the inhibition at 3 µM under setting [3] was 74%. For the same compound, under setting [4], the inhibition at 10 µM worked out at 97%. For `COc1cc2c(Oc3cc(C)c(C)nc3-c3ccc(C)cn3)ccnc2cc1OCCO` [Compound r459], the inhibition at 3 µM under setting [1] is 98%. Turning to `COc1cc2c(Oc3cc(C)c(C)nc3-c3ccccn3)ccnc2cc1F` [Compound 104, 3-(7-Fluoro-6-methoxy-quinolin-4-yloxy)-5,6-dimethyl-[2,2']bipyridine], the inhibition at 3 µM under setting [6] worked out at 99%. Under setting [7], the inhibition at 10 µM is 100%. For the compound `COc1cc2nccc(Oc3ccc(C)cc3Br)c2cc1OC` [Compound r4], the inhibition at 3 µM under setting [3] was 20%. In addition, the inhibition at 10 µM under setting [4] was 78%.

As for `COc1cc2c(Oc3ccc(C)cc3C(=O)c3ccccc3)ccnc2cc1OCCCN1CCOCC1` [r139], under setting [3], the inhibition at 3 µM turned out to be 99%. Under setting [4], the inhibition at 10 µM was 100%. As to `COc1cc2nccc(Oc3ccc4ncccc4c3Cl)c2cc1OC` [r298], the inhibition at 3 µM under setting [1] is 30%. Also, the inhibition at 10 µM under setting [2] came out at 75%. With `Cc1cc(Oc2ccnc3ccc(-c4ccccc4)cc23)c(-c2ccccn2)nc1C` [Compound 5, 5,6-Dimethyl-3-(6-phenyl-quinolin-4-yloxy)-[2,2']bipyridine], the inhibition at 3 µM under setting [6] was 79%. Moreover, the inhibition at 10 µM under setting [7] came out at 100%. Consider `COc1cc2nccc(Oc3ccc(C)nc3-c3ccccc3O)c2cc1OC` [Compound r226], for which the inhibition at 3 µM under setting [1] turned out to be 60%. Besides, the inhibition at 10 µM under setting [2] was determined as 96%. Turning to `COc1cc2c(Oc3ccc(C)cc3C(=O)c3ccccc3)ccnc2cc1OCCCCl` [Compound r132], the inhibition at 3 µM under setting [3] came out at 72%. In addition, under setting [4], the inhibition at 10 µM was determined as 99%. On to `COc1ccc(Oc2ccnc3cc(OC)c(OC)cc23)c(C(C)=O)c1` [r177], for which the inhibition at 3 µM under setting [5] amounted to 94%.

Take `COc1cc2nccc(Oc3cc4cccnc4nc3-c3cccnc3)c2cc1OC` [Compound 88, 3-(6,7-Dimethoxy-quinolin-4-yloxy)-2-pyridin-3-yl-[1,8]naphthyridine]: the inhibition at 3 µM under setting [6] turned out to be 90%. For the same compound, the inhibition at 10 µM under setting [7] amounted to 100%. Take `COc1cc2c(Oc3ccc(C)cc3C(=O)c3ccccc3)ccnc2cc1OCC(O)CNCCO` (centres unmarked) [Compound r152]: the inhibition at 3 µM under setting [3] came out at 99%. The inhibition at 10 µM under setting [4] was found to be 100%.

On to `COc1ccc(Oc2ccnc3cc(OC)c(OC)cc23)c(C(=O)c2nccs2)c1` [r192], for which the inhibition at 3 µM under setting [1] worked out at 79%. Moreover, under setting [2], the inhibition at 10 µM was determined as 99%. `COc1cc2nccc(Oc3cc4ccccc4nc3-c3ncccn3)c2cc1OC` [Compound 92, 6,7-Dimethoxy-4-(2-pyrimidin-2-yl-quinolin-3-yloxy)-quinoline]: the inhibition at 1 µM (A549, test compound 1 µM, TGFβ-1 2 ng/ml, 4 hr, Table 1A, read-out: TGFβ inhibition rate, %) worked out at 62%. Further, the inhibition at 3 µM under setting [6] stood at 98%.

With `COc1cc2nccc(Oc3ccccc3C(=O)Nc3ccccc3)c2cc1OC` [r104], the inhibition at 3 µM under setting [3] worked out at 0%. Moreover, the inhibition at 10 µM under setting [4] was found to be 58%. Consider `COc1cc2c(Oc3ccc(C)cc3C(=O)c3ccccc3)ccnc2cc1OCCN1CCC(CO)CC1` [Compound r126], for which, under setting [3], the inhibition at 3 µM turned out to be 100%. Moreover, the inhibition at 10 µM under setting [4] was 100%. For the compound `COc1cc2nccc(Oc3cc(C)c(C)cc3/C(C)=N/OCc3ccccc3)c2cc1OC` [r198], under setting [1], the inhibition at 3 µM came to 32%. Under setting [2], the inhibition at 10 µM was 80%. With `COc1cc2nccc(Oc3ccccc3C(C)=O)c2cc1OC` [Compound r29], under setting [3], the inhibition at 3 µM amounted to 0%. Besides, the inhibition at 10 µM under setting [4] is 67%. `COc1cc2c(Oc3cc(C)c(C)cc3C(C)=O)ccnc2cc1OCCn1ccnc1` [Compound r317]: the inhibition at 3 µM under setting [1] came out at 100%. Further, under setting [2], the inhibition at 10 µM is 100%. Regarding `COc1cc2c(Oc3cc4cccnc4nc3C)ccnc2cc1OCCN1CCCC(O)C1` (centres unmarked) [Compound r399], under setting [1], the inhibition at 3 µM is 99%. The inhibition at 10 µM under setting [2] amounted to 100%. The like results for `COc1cc2c(Oc3cc4cccnc4nc3C)ccnc2cc1OCCN1CCC(O)CC1` [Compound r451] were, in that order, 99% and 100%. The like results for `COc1cc2nccc(Oc3cc(C)c(C)nc3-c3cccc(C)n3)c2cc1OC` [Compound r271] were, in that order, 94% and 100%.

For the compound `COc1cc2nccc(Oc3ccc(C)nc3C(O)c3ccccc3)c2cc1OC` (centres unmarked) [r217], the inhibition at 3 µM under setting [1] is 91%. The inhibition at 10 µM under setting [2] turned out to be 100%. For `COc1cc2nccc(Oc3ccc(C)cc3C(C)=O)c2cc1OC` [Compound r35], the inhibition at 3 µM under setting [3] stood at 49%. In addition, the inhibition at 10 µM under setting [4] was 89%.

On to `Cc1cc(Oc2ccnc3cc(-c4csc5ccccc45)ccc23)c(-c2ccccn2)nc1C` [Compound 172, 3-(7-Benzo[b]thiophen-3-yl-quinolin-4-yloxy)-5,6-dimethyl-[2,2']bipyridine], for which, under setting [6], the inhibition at 3 µM came to 49%. The inhibition at 10 µM under setting [7] was 90%. The corresponding values for `COC(=O)c1ccc2c(Oc3cc4cccnc4nc3-c3ccccc3)ccnc2c1` [Compound 113, Methyl 4-(2-Phenyl-[1,8]naphthyridin-3-yloxy)-quinoline-7-carboxarlate] are 95% and 100%.

Consider `Cc1ccc(-c2nc(C)c(C)cc2Oc2ccnc3cc(C(F)(F)F)ccc23)nc1` [r433], for which, under setting [1], the inhibition at 3 µM worked out at 91%. Also, the inhibition at 10 µM under setting [2] came out at 100%. In the case of `COc1cc2nccc(Oc3ccc4c(c3)COC(=O)N4)c2cc1OC` [Compound r23, 6-[(6,7-Dimethoxy-4-quinolyl)oxy]-1,4-dihydro-2H-3,1-benzoxazin-2-one], the inhibition at 3 µM under setting [3] worked out at 56%. Also, the inhibition at 10 µM under setting [4] is 91%. `COc1cc2c(Oc3cc4cnccc4nc3C)ccnc2cc1OCCO` [Compound r407]: the inhibition at 3 µM under setting [1] turned out to be 71%. Moreover, under setting [2], the inhibition at 10 µM was determined as 97%. The like results for `CCc1nc2ncccc2cc1Oc1ccnc2cc(OC)c(OC)cc12` [Compound r423] were, in that order, 88% and 100%.

As for `COc1cc2c(Oc3cc4ccccc4nc3C)ccnc2cc1NCCN1CCOCC1` [Compound r410, [6-Methoxy-4-(2-methyl-quinolin-3-yloxy)-quinolin-7-yl]-(2-morpholin-4-yl-ethyl)-amine], the inhibition at 3 µM under setting [1] was found to be 91%. For the same compound, the inhibition at 10 µM under setting [2] turned out to be 100%. On to `COc1cc2nccc(Oc3ccc(C)cc3C(=O)C(C)(C)C)c2cc1OC` [Compound r54], for which, under setting [3], the inhibition at 3 µM came to 13%. In addition, the inhibition at 10 µM under setting [4] amounted to 73%. For `CCc1ccc(Oc2ccnc3ccc(O)cc23)c(-c2ncccn2)n1` [Compound 191, 4-(6-Ethyl-2-pyrimidin-2-yl-pyridin-3-yloxy)-quinolin-6-ol], the inhibition at 3 µM under setting [6] came out at 99%. For the same compound, under setting [7], the inhibition at 10 µM amounted to 100%. Take `COc1cc2nccc(Oc3cccnc3OC3CCCC3)c2cc1OC` [Compound r204, 4-(2-Cyclopentyloxy-pyridin-3-yloxy)-6,7-dimethoxy-quinoline]: the inhibition at 3 µM under setting [1] came out at 14%. Besides, under setting [2], the inhibition at 10 µM came out at 77%. As for `COc1cc2c(Oc3cc(C)c(C)nc3-c3ccc(C)cn3)ccnc2cc1OCC(O)CO` (centres unmarked) [Compound r463], the inhibition at 3 µM under setting [1] stood at 77%. Further, under setting [2], the inhibition at 10 µM is 99%. In the case of `CCCCc1ccc(Oc2ccnc3cc(OC)c(OC)cc23)c(C(C)=O)c1` [r174], the inhibition at 3 µM under setting [1] came to 57%. Moreover, the inhibition at 10 µM under setting [2] was determined as 96%. `COc1cc2c(Oc3cc(C)c(C)cc3C(C)=O)ccnc2cc1O` [Compound r314]: the inhibition at 3 µM under setting [1] is 50%. Further, the inhibition at 10 µM under setting [2] worked out at 89%. As to `COc1ccc(Oc2ccnc3cc(OCCCCl)c(OC)cc23)c(C(C)=O)c1` [Compound r121], the inhibition at 3 µM under setting [3] is 100%. In addition, the inhibition at 10 µM under setting [4] stood at 100%.

(Values after patent publication EP1724268A1, “COMPOUND HAVING TGF-BETA INHIBITORY ACTIVITY AND PHARMACEUTICAL COMPOSITION CONTAINING SAME” (KIRIN BEER KABUSHIKI KAISHA, priority 2004, dated 2005).)
